Experimental data reported in PMC8007111, “Novel Potent Muscarinic Receptor Antagonists: Investigation on the Nature of Lipophilic Substituents in the 5- and/or 6-Positions of the 1,4-Dioxane Nucleus” (Journal of Medicinal Chemistry, 2020).

Target: T1, hM5 mAChR (Homo sapiens, UniProt P08912)
T1 construct: expressed in transfected cells; host or cells: CHO-K1 (membrane preparation)
T1 sequence (P08912 1-532): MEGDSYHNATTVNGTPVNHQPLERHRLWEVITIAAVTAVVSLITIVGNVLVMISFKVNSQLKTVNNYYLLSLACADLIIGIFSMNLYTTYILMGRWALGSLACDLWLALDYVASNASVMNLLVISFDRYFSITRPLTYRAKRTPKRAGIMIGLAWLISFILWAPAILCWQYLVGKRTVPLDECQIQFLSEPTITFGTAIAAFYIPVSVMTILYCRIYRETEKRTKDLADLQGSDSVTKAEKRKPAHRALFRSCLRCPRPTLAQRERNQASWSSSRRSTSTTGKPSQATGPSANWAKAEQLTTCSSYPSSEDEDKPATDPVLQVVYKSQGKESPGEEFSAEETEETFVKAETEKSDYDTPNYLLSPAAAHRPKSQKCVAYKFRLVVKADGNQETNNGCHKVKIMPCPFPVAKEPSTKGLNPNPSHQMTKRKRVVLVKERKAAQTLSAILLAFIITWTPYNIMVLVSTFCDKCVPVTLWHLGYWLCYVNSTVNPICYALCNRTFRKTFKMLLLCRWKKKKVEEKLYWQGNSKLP
Assay: [3H]NMS inhibition radioligand binding, hM5 in CHO-K1 cell membranes
Conditions: [3H]NMS, CHO-K1 cell membranes; mean ± S.E.M.

## C[N+](C)(C)C[C@@H]1COC[C@](c2ccccc2)(C2CCCCC2)O1.[I-] (relative stereo) [3b, 1-((2R*,6R*)-6-Cyclohexyl-6-phenyl-1,4-dioxan-2-yl)-N,N,N-trimethylmethanaminium Iodide]
  pKi hM5: 8.41 ± 0.1
